# Measured values: article PMC8957246, “Synthesis and diverse biological activity profile of triethylammonium isatin-3-hydrazones” (ADMET & DMPK, 2022)
# Test system: MRSA-1 and MRSA-2 compared to erythrocytes and hepatocytes
# Experiment: Selectivity index (HC50 or IC50 / MIC)
# Parameters: species or system Staphylococcus aureus
# Details: resistant strains MRSA-1 and MRSA-2 compared to erythrocytes and hepatocytes
# Description: The selectivity of compounds for microbial cells is an important criterion for assessing the cytotoxic effect. This indicator is characterized by the value of the selectivity index (SI), which for the leading compounds 3b, 3c, and 3d was calculated as the ratio between the HC50 value for erythrocytes (IC50 for eukaryotic cells) and the MIC value for bacterial cells (Fig. 4). […] Its selectivity index was 3–8 times higher than that of compounds 3b and 3c.
smiles,measurement,value
"CC[N+](CC)(CC)CC(=O)N/N=C1\C(=O)N(Cc2cc(C(C)(C)C)c(O)c(C(C)(C)C)c2)c2c1ccc(C)c2C [Compound 3d, 2-(2-(1-(3,5-Di-tert-butyl-4-hydroxybenzyl)-6,7-dimethyl-2-oxoindolin-3-ylidene)hydrazinyl)-N,N,N-triethyl-2-oxoethanammonium bromide]","selectivity index, times higher than that of compounds 3b and 3c",3–8 times
